Measurements reported in PubChem BioAssay (NCI).
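Grown in 96-well plates, cells were treated for 48 hours with each compound at five concentrations. Insufficient inhibition: endpoint recorded as highest concentration tested. TGI: total growth inhibition.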

Legend:
Test in all cases: NCI anticancer screen, dose series, 48 h
ACHN renal = tested on: ACHN renal
OVCAR-3 ovarian = tested on: OVCAR-3 ovarian
SN12C renal = tested on: SN12C renal
SK-MEL-2 melanoma = tested on: SK-MEL-2 melanoma
SF-539 CNS = tested on: SF-539 CNS
HCC-2998 colon = tested on: HCC-2998 colon
SF-268 CNS = tested on: SF-268 CNS
SF-295 CNS = tested on: SF-295 CNS
HCT-15 colon = tested on: HCT-15 colon
MCF7 breast = tested on: MCF7 breast
UO-31 renal = tested on: UO-31 renal

Compound | TGI (ACHN renal) [µM] | TGI (OVCAR-3 ovarian) [µM] | TGI (SN12C renal) [µM] | TGI (SK-MEL-2 melanoma) [µM] | TGI (SF-539 CNS) [µM] | TGI (HCC-2998 colon) [µM] | TGI (SF-268 CNS) [µM] | TGI (SF-295 CNS) [µM] | TGI (HCT-15 colon) [µM] | TGI (MCF7 breast) [µM] | TGI (UO-31 renal) [µM]
Cc1ccc2c(c1)[nH]c1cc(C(F)(F)F)ccc1[p+]2=O (centres undefined) | > 100 | > 100 | > 100 | > 100 | > 100 | > 100 | > 100 | 81.9 | > 100 | > 100 | –
CC(=O)C1=C(C)NC2C=CC=CN12 (centres undefined) | > 100 | > 100 | > 100 | > 100 | > 100 | > 100 | > 100 | > 100 | > 100 | – | > 100
O=C1c2ccccc2-c2nc(-c3cccc([N+](=O)[O-])c3)nnc21 | 16.7 | – | 45.7 | 49.2 | > 100 | – | > 100 | > 100 | 59.9 | > 100 | 42.2
CCCCCC(=O)NC(=S)Nc1nn[nH]n1 | – | > 100 | > 100 | > 100 | > 100 | > 100 | > 100 | > 100 | > 100 | > 100 | > 100
CCCSc1ccc2[nH]c(/N=C/c3ccco3)cc2c1 | > 100 | > 100 | > 100 | 59 | 42.5 | – | > 100 | > 100 | > 100 | > 100 | > 100
COc1ccc(O)cc1 | > 100 | > 100 | > 100 | > 100 | > 100 | > 100 | > 100 | – | 98.4 | – | > 100
O=C1Nc2c(ccc(Cl)c2I)C1=O | 29 | 55.7 | 30.9 | 27.7 | – | 34.4 | 39.4 | 36.5 | 38.6 | – | 32.1
NCCSc1nc2ccccc2c(=O)n1-c1ccccc1 | > 100 | > 100 | > 100 | > 100 | > 100 | > 100 | – | > 100 | > 100 | > 100 | > 100
C[C@H](N)C(=O)Nc1ccc(-c2nc3ccccc3s2)cc1 | 32.8 | 36.9 | 56 | 99.4 | 52.3 | 45.8 | > 100 | 33.9 | 36.2 | – | 28.4
Cc1cc(C2(O)C=C(C(C)(C)C)C(=O)C(C(C)(C)C)=C2)c(C)cc1C1(O)C=C(C(C)(C)C)C(=O)C(C(C)(C)C)=C1 | > 100 | – | > 100 | > 100 | > 100 | – | > 100 | > 100 | > 100 | > 100 | > 100
CCCCCCCCCCCCCCCCCC(=O)O[C@H](COC(=O)CCCCCCCCCCC)COC(=O)CCCCCCCCCCCCCCC | > 100 | > 100 | > 100 | – | – | > 100 | > 100 | > 100 | > 100 | – | > 100
